For the assay, the target named is Dipeptidyl peptidase 4 (Homo sapiens, UniProt P27487). Briefly: Inhibitory activity against Dipeptidylpeptidase IV mediated cleavage of Ala-Pro-7-amido-4-tri-fluoromethylcoumarin in a fluorogenic assay. The format is functional.
Dipeptidyl peptidase 4, sequence (P27487 whole entry): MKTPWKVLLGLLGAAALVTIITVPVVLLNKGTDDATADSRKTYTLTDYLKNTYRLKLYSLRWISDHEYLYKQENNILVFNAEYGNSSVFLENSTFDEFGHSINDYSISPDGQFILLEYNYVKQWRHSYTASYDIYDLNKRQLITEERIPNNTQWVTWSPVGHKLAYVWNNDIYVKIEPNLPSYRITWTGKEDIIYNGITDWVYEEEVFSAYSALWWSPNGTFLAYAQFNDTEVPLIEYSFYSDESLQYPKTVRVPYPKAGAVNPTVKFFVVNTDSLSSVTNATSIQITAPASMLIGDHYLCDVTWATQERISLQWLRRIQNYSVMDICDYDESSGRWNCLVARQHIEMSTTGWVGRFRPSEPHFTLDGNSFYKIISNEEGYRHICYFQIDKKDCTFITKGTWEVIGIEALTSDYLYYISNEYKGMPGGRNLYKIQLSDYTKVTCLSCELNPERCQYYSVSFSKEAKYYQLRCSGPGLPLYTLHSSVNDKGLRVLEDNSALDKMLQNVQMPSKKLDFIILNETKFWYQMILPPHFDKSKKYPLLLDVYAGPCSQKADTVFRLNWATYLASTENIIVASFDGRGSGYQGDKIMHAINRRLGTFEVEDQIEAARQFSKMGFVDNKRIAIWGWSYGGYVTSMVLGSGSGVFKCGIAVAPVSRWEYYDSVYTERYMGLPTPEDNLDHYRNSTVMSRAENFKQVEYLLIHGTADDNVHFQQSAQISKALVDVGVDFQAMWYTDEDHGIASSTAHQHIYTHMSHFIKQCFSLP
Take `NCc1c(N)nc(-c2ccccc2)nc1-c1ccc(F)cc1`: the IC50 came out at 18000 nM.

In turn, `Cc1cccc(-c2nc(-c3ccccc3)nc(N)c2CN)c1` showed an IC50 of 20000 nM.

Take `NCc1c(N)nc(-c2ccccc2)nc1-c1ccccc1F`: the half-maximal inhibitory concentration (IC50) came out at 14000 nM.

Molecule `NCc1c(N)nc(-c2ccccc2)nc1-c1ccccc1C(F)(F)F` returned an IC50 of 14000 nM.

Consider `NCc1c(N)nc(-c2ccccc2)nc1-c1cccc(C(F)(F)F)c1`, for which the IC50 was 170000 nM.

`NCc1c(N)nc(-c2ccccc2)nc1-c1ccccc1`: the IC50 turned out to be 42000 nM.

On to `COc1cccc(-c2nc(-c3ccccc3)nc(N)c2CN)c1`, for which the half-maximal inhibitory concentration (IC50) was 80000 nM.

`NCc1c(N)nc(-c2ccccc2)nc1-c1ccc(Cl)cc1` registered an IC50 of 1400 nM.

As for `NCc1c(N)nc(-c2ccc(C(F)(F)F)cc2)nc1-c1ccc(Cl)cc1Cl`, the 50% inhibitory concentration (IC50) was determined as 180 nM.

`COc1ccccc1-c1nc(N)c(CN)c(-c2ccc(Cl)cc2Cl)n1`: the IC50 was found to be 350 nM.

Molecule `NCc1c(N)nc(-c2ccc(F)cc2)nc1-c1ccc(Cl)cc1Cl` registered an IC50 of 0.2 nM.

For the molecule `Cc1ccc(-c2nc(N)c(CN)c(-c3ccc(Cl)cc3Cl)n2)cc1`, the IC50 turned out to be 90 nM.

In turn, `NCc1c(N)nc(-c2ccccc2)nc1-c1ccc(C(F)(F)F)cc1` registered a concentration for half-maximal inhibition (IC50) of 1100 nM.

`Cc1ccccc1-c1nc(-c2ccccc2)nc(N)c1CN` came in with an IC50 of 1500 nM.

`Cc1cccc(-c2nc(N)c(CN)c(-c3ccc(Cl)cc3Cl)n2)c1` registered an IC50 of 0.9 nM.

The molecule `NCc1c(N)nc(-c2ccccc2)nc1-c1cccc(F)c1` returned an IC50 of 40000 nM.

The molecule `NCc1c(N)nc(-c2ccccc2)nc1-c1ccc(Cl)cc1Cl` returned an IC50 of 10 nM.

`COc1ccc(-c2nc(-c3ccccc3)nc(N)c2CN)cc1` returned an IC50 of 47000 nM.

In turn, `NCc1c(N)nc(-c2ccccc2)nc1-c1ccccc1Cl` had an IC50 of 2500 nM.

The molecule `COc1ccccc1-c1nc(-c2ccccc2)nc(N)c1CN` had an IC50 of 1500 nM.

`COc1ccc(-c2nc(N)c(CN)c(-c3ccc(Cl)cc3Cl)n2)cc1` showed an IC50 of 100 nM.

`NCc1c(N)nc(-c2ccccc2F)nc1-c1ccc(Cl)cc1Cl` registered an IC50 of 47 nM.

For `Cc1ccccc1-c1nc(N)c(CN)c(-c2ccc(Cl)cc2Cl)n1`, the half-inhibitory concentration (IC50) came to 1750 nM.

`NCc1c(N)nc(-c2cccc(C(F)(F)F)c2)nc1-c1ccc(Cl)cc1Cl` displayed an IC50 of 130 nM.

Regarding `NCc1c(N)nc(-c2cccc(Cl)c2)nc1-c1ccc(Cl)cc1Cl`, the IC50 was determined as 240 nM.

As to `NCc1c(N)nc(-c2ccc(Cl)cc2)nc1-c1ccc(Cl)cc1Cl`, the IC50 came to 53 nM.

For `COc1cccc(-c2nc(N)c(CN)c(-c3ccc(Cl)cc3Cl)n2)c1`, the IC50 worked out at 340 nM.

In turn, `NCc1c(N)nc(-c2ccc(F)c(F)c2)nc1-c1ccc(Cl)cc1Cl` had an IC50 of 3 nM.

With `Cc1ccc(-c2nc(-c3ccccc3)nc(N)c2CN)cc1`, the IC50 was found to be 1000 nM.

Molecule `NCc1c(N)nc(-c2ccccc2)nc1-c1cccc(Cl)c1` gave a half-inhibitory concentration (IC50) of 31000 nM.

Source of the values: ChEMBL document CHEMBL1147631, “Aminomethylpyrimidines as novel DPP-IV inhibitors: a 10(5)-fold activity increase by optimization of aromatic substituents” (Bioorg Med Chem Lett, 2004).
